Patent publication US8748461B2, “Metalloenzyme inhibitor compounds” (Viamet Pharmaceuticals, Inc., priority 2011, dated 2014)
In brackets after ≈: the same amount, converted by molar mass.

Legend:
[1] = tested on: Septoria tritici (ATCC 26517); assay: Minimum Inhibitory Concentration (MIC) vs. Septoria tritici; format: cell-based; details: Zymoseptoria tritici, ATCC26517, 168 h; 50% reduction in growth of S. tritici; 22° C., seven days; read-out: Septoria Rating (MIC)
Summary of the method: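 Growth inhibition of S. tritici by CLSI-based filamentous-fungus microdilution, 2-fold series 16 to 0.016 μg/mL in RPMI-1640/MOPS with 2% DMSO. Inoculum approximately 5×10^4 cfu/mL; plates incubated 22° C, seven days, dark, unshaken.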

[2] = tested on: Puccinia recondita tritici = Puccinia triticina; assay: Fungicidal activity vs. leaf rust on wheat plants; format: in vivo; details: 50 ppm spray on wheat (Yuma), inoculated the following day, evaluated 7-9 days later; read-out: Puccinia Rating (% Disease Control @ 50 ppm)
Summary of the method: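 Wheat seedlings were sprayed to wetness with compound at 50 ppm in 10% acetone/Triton X100 water, at about 1500 L/ha. They were inoculated with P. recondita tritici spores the following day and held overnight at high humidity before greenhouse growth. Disease severity was rated 7-9 days later on a rating scale.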

| MIC [1] [µg/mL] | Compound | pest or weed control at 50 ppm [2] [%] |
| --- | --- | --- |
| ≤ 0.5 | N#Cc1ccc(Oc2ccc(C(F)(F)C(O)(Cn3cnnn3)c3ccc(F)cc3F)nc2)nc1 (stereo not shown) [Compound 93, 6-((6-(2-(2,4-difluorophenyl)-1,1-difluoro-2-hydroxy-3-(1H-tetrazol-1-yl)propyl)pyridin-3-yl)oxy)nicotinonitrile] | 80 to 100 |
| ≤ 0.5 | OC(Cn1cncn1)(c1ccc(F)cc1F)C(F)(F)c1ccc(OCc2cccc(F)c2F)cn1 (stereo not shown) [Compound 45, 1-(5-((2,3-Difluorobenzyl)oxy)pyridin-2-yl)-2-(2,4-difluorophenyl)-1,1-difluoro-3-(1H-1,2,4-triazol-1-yl)propan-2-ol] | 80 to 100 |
| ≤ 0.5 | OC(Cn1cnnn1)(c1ccc(F)cc1F)C(F)(F)c1ccc(Oc2ccc(F)cc2)cn1 (stereo not shown) [Compound 6, 2-(2,4-Difluorophenyl)-1,1-difluoro-1-(5-(4-fluorophenoxy)pyridin-2-yl)-3-(1H-tetrazol-1-yl)propan-2-ol] | 80 to 100 |
| 0.5 to 1.5 (≈ 1.22 to 3.65 µM) | CC(C)Oc1ccc(C(F)(F)C(O)(Cn2cnnn2)c2ccc(F)cc2F)nc1 (stereo not shown) [Compound 42, 2-(2,4-Difluorophenyl)-1,1-difluoro-1-(5-isopropoxypyridin-2-yl)-3-(1H-tetrazol-1-yl)propan-2-ol] | 80 to 100 |
| ≤ 0.5 | OC(Cn1cnnn1)(c1ccc(F)cc1F)C(F)(F)c1ccc(OCc2ccc(C(F)(F)F)cc2)cn1 (stereo not shown) [Compound 22, 2-(2,4-Difluorophenyl)-1,1-difluoro-3-(1H-tetrazol-1-yl)-1-(5-((4-(trifluoromethyl)benzyl)oxy)pyridin-2-yl)propan-2-ol] | 80 to 100 |
| ≤ 0.5 | N#Cc1ccc(COc2ccc(C(F)(F)C(O)(Cn3cnnn3)c3ccc(F)cc3F)nc2)nc1 (stereo not shown) [Compound 50, 6-(((6-(2-(2,4-Difluorophenyl)-1,1-difluoro-2-hydroxy-3-(1H-tetrazol-1-yl)propyl)pyridin-3-yl)oxy)methyl)nicotinonitrile] | 80 to 100 |
| ≤ 0.5 | OC(Cn1cnnn1)(c1ccc(F)cc1F)C(F)(F)c1ccc(OCc2ccc(Cl)cc2F)cn1 (stereo not shown) [Compound 1, 1-(5-(4-Chloro-2-fluorobenzyloxy)pyridin-2-yl)-2-(2,4-difluorophenyl)-1,1-difluoro-3-(1H-tetrazol-1-yl)propan-2-ol] | 80 to 100 |
| ≤ 0.5 | N#Cc1ccc(COc2ccc(C(F)(F)C(O)(Cn3cnnn3)c3ccc(F)cc3F)nc2)cc1F (stereo not shown) [Compound 10, 4-(((6-(2-(2,4-Difluorophenyl)-1,1-difluoro-2-hydroxy-3-(1H-tetrazol-1-yl)propyl)pyridin-3-yl)oxy)methyl)-2-fluorobenzonitrile] | 80 to 100 |
| ≤ 0.5 | OC(Cn1cnnn1)(c1ccc(F)cc1F)C(F)(F)c1ccc(Oc2cccc(Cl)c2)cn1 (stereo not shown) [Compound 84, 1-(5-(3-Chlorophenoxy)pyridin-2-yl)-2-(2,4-difluorophenyl)-1,1-difluoro-3-(1H-tetrazol-1-yl)propan-2-ol] | 80 to 100 |
| 0.5 to 1.5 (≈ 1.06 to 3.18 µM) | N#Cc1ncc(Oc2ccc(C(F)(F)C(O)(Cn3cnnn3)c3ccc(F)cc3F)nc2)cn1 (stereo not shown) [Compound 100, 5-((6-(2-(2,4-difluorophenyl)-1,1-difluoro-2-hydroxy-3-(1H-tetrazol-1-yl)propyl)pyridin-3-yl)oxy)pyrimidine-2-carbonitrile] | 60 to 79 |
| ≤ 0.5 | OC(Cn1cnnn1)(c1ccc(F)cc1F)C(F)(F)c1ccc(OCc2ccc(C(F)(F)F)cn2)cn1 (stereo not shown) [Compound 114, 2-(2,4-difluorophenyl)-1,1-difluoro-3-(1H-tetrazol-1-yl)-1-(5-((5-(trifluoromethyl)pyridin-2-yl)methoxy)pyridin-2-yl)propan-2-ol] | 80 to 100 |
| 0.5 to 1.5 (≈ 1.09 to 3.26 µM) | OC(Cn1cnnn1)(c1ccc(F)cc1F)C(F)(F)c1ccc(OCc2ccccn2)cn1 (stereo not shown) [Compound 37, 2-(2,4-Difluorophenyl)-1,1-difluoro-1-(5-(pyridin-2-ylmethoxy)pyridin-2-yl)-3-(1H-tetrazol-1-yl)propan-2-ol] | 80 to 100 |
| ≤ 0.5 | OC(Cn1cnnn1)(c1ccc(F)cc1F)C(F)(F)c1ccc(OCc2cc(F)cc(F)c2)cn1 (stereo not shown) [Compound 35, 1-(5-((3,5-Difluorobenzyl)oxy)pyridin-2-yl)-2-(2,4-difluorophenyl)-1,1-difluoro-3-(1H-tetrazol-1-yl)propan-2-ol] | 80 to 100 |
| ≤ 0.5 | OC(Cn1cnnn1)(c1ccc(F)cc1F)C(F)(F)c1ccc(OCC(F)(F)F)cn1 (stereo not shown) [Compound 12, 2-(2,4-Difluorophenyl)-1,1-difluoro-3-(1H-tetrazol-1-yl)-1-(5-(2,2,2-trifluoroethoxy)pyridin-2-yl)propan-2-ol] | 80 to 100 |
| ≤ 0.5 | N#Cc1ccc(Oc2ccc(C(F)(F)C(O)(Cn3cnnn3)c3ccc(F)cc3F)nc2)cc1F (stereo not shown) [Compound 17, 4-((6-(2-(2,4-Difluorophenyl)-1,1-difluoro-2-hydroxy-3-(1H-tetrazol-1-yl)propyl)pyridin-3-yl)oxy)-2-fluorobenzonitrile] | 80 to 100 |
| ≤ 0.5 | OC(Cn1cnnn1)(c1ccc(F)cc1F)C(F)(F)c1ccc(OCc2ccc(Cl)c(F)c2)cn1 (stereo not shown) [Compound 27, 1-(5-((4-Chloro-3-fluorobenzyl)oxy)pyridin-2-yl)-2-(2,4-difluorophenyl)-1,1-difluoro-3-(1H-tetrazol-1-yl)propan-2-ol] | 80 to 100 |
| ≤ 0.5 | OC(Cn1cnnn1)(c1ccc(F)cc1F)C(F)(F)c1ccc(OCc2cccs2)cn1 (stereo not shown) [Compound 49, 2-(2,4-Difluorophenyl)-1,1-difluoro-3-(1H-tetrazol-1-yl)-1-(5-(thiophen-2-ylmethoxy)pyridin-2-yl)propan-2-ol] | 80 to 100 |
| ≤ 0.5 | CC(Oc1ccc(C(F)(F)C(O)(Cn2cnnn2)c2ccc(F)cc2F)nc1)C(F)(F)F (stereo not shown) [Compound 47, 2-(2,4-Difluorophenyl)-1,1-difluoro-3-(1H-tetrazol-1-yl)-1-(5-((1,1,1-trifluoropropan-2-yl)oxy)pyridin-2-yl)propan-2-ol] | 80 to 100 |
| ≤ 0.5 | OC(Cn1cnnn1)(c1ccc(F)cc1F)C(F)(F)c1ccc(Oc2ncc(C(F)(F)F)cc2Cl)cn1 (stereo not shown) [Compound 92, 1-(5-((3-chloro-5-(trifluoromethyl)pyridin-2-yl)oxy)pyridin-2-yl)-2-(2,4-difluorophenyl)-1,1-difluoro-3-(1H-tetrazol-1-yl)propan-2-ol] | 80 to 100 |
| 0.5 to 1.5 (≈ 1.3 to 3.91 µM) | COc1ccc(C(F)(F)C(O)(Cn2cnnn2)c2ccc(F)cc2F)nc1 (stereo not shown) [Compound 8, 2-(2,4-Difluorophenyl)-1,1-difluoro-1-(5-methoxypyridin-2-yl)-3-(1H-tetrazol-1-yl)propan-2-ol] | 80 to 100 |
| ≤ 0.5 | N#Cc1ccc(COc2ccc(C(F)(F)C(O)(Cn3cnnn3)c3ccc(F)cc3F)nc2)cc1 (stereo not shown) [Compound 9, 4-(((6-(2-(2,4-Difluorophenyl)-1,1-difluoro-2-hydroxy-3-(1H-tetrazol-1-yl)propyl)pyridin-3-yl)oxy)methyl)benzonitrile] | 80 to 100 |
| ≤ 0.5 | OC(Cn1cnnn1)(c1ccc(F)cc1F)C(F)(F)c1ccc(Oc2ncc(C(F)(F)F)cc2F)cn1 (stereo not shown) [Compound 104, 2-(2,4-difluorophenyl)-1,1-difluoro-1-(5-((3-fluoro-5-(trifluoromethyl)pyridin-2-yl)oxy)pyridin-2-yl)-3-(1H-tetrazol-1-yl)propan-2-ol] | 80 to 100 |
| ≤ 0.5 | N#Cc1ccc(Oc2ccc(C(F)(F)C(O)(Cn3cnnn3)c3ccc(Cl)cc3F)nc2)cc1F (stereo not shown) [Compound 81, 4-((6-(2-(4-Chloro-2-fluorophenyl)-1,1-difluoro-2-hydroxy-3-(1H-tetrazol-1-yl)propyl)pyridin-3-yl)oxy)-2-fluorobenzonitrile] | 80 to 100 |
| ≤ 0.5 | OC(Cn1cnnn1)(c1ccc(F)cc1F)C(F)(F)c1ccc(Oc2ccc(C(F)(F)F)cc2)cn1 (stereo not shown) [Compound 75, 2-(2,4-Difluorophenyl)-1,1-difluoro-3-(1H-tetrazol-1-yl)-1-(5-(4-(trifluoromethyl)phenoxy)pyridin-2-yl)propan-2-ol] | 80 to 100 |
| ≤ 0.5 | N#Cc1ccc(Oc2ccc(C(F)(F)C(O)(Cn3cnnn3)c3ccc(Cl)cc3F)nc2)cc1 (stereo not shown) [Compound 79, 4-((6-(2-(4-Chloro-2-fluorophenyl)-1,1-difluoro-2-hydroxy-3-(1H-tetrazol-1-yl)propyl)pyridin-3-yl)oxy)benzonitrile] | 80 to 100 |
| ≤ 0.5 | OC(Cn1cnnn1)(c1ccc(F)cc1F)C(F)(F)c1ccc(OCc2ccc(C(F)(F)F)nc2)cn1 (stereo not shown) [Compound 115, 2-(2,4-difluorophenyl)-1,1-difluoro-3-(1H-tetrazol-1-yl)-1-(5-((6-(trifluoromethyl)pyridin-3-yl)methoxy)pyridin-2-yl)propan-2-ol] | 80 to 100 |
